Assay results as given in patent publication US20240116985A1, “STAPLED PEPTIDES AND METHODS THEREOF” (priority 2020, published 2024).
Non-standard residues stand in square brackets, D forms with d. Residues, ends and D or L forms follow the SMILES beside them. Bta = N[C@@H](Cc1csc2ccccc12)C(=O)O; tBuAla = CC(C)(C)C[C@H](N)C(=O)O; 3Thi = N[C@@H](Cc1ccsc1)C(=O)O; αMeP = C[C@@]1(C(=O)O)CCCN1; Aib = CC(C)(N)C(=O)O

target: T1, full-length beta-Catenin (Uniprot ID P35222) (Homo sapiens, UniProt P35222); experiment: Fluorescence polarization IC50 (beta-catenin / 5FAM-TCF4 10-53 competition); assay type: binding; conditions: fluorescence polarization; read-out: beta-Catenin FP IC50
T1 construct: 10 nM full-length beta-Catenin (Uniprot ID P35222)
T1 sequence (P35222 1-781): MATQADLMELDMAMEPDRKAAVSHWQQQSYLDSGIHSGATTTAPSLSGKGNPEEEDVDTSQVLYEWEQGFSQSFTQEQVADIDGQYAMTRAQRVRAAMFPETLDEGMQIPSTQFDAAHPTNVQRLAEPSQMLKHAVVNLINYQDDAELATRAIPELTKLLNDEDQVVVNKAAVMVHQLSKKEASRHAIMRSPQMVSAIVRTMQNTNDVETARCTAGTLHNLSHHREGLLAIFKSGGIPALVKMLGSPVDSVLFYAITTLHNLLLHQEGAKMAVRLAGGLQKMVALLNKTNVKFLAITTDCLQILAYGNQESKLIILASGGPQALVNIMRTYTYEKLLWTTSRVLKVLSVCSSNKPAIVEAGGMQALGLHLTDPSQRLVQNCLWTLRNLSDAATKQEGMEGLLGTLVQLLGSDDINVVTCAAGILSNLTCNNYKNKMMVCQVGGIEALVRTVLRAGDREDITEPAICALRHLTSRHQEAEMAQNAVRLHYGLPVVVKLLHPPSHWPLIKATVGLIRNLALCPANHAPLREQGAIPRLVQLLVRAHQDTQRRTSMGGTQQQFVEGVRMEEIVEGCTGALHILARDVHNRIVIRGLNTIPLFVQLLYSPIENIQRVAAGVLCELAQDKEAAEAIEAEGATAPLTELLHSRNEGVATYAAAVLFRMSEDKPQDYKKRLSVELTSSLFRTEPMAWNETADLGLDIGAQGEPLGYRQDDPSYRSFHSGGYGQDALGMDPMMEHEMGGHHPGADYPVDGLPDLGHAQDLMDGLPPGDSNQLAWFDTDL

Compound	IC50
CC(=O)N1CCC[C@@]1(C)C(=O)N[C@@H](CC(=O)O)C(=O)N[C@@H](CC(C)(C)C)C(=O)NC(C)(C)C(=O)N[C@@H](CC(=O)O)C(=O)N[C@@H](CC(=O)O)C(=O)N[C@@H](C)C(=O)N[C@@H](C)C(=O)N[C@@H](Cc1ccccc1)C(=O)N[C@@H](CCC(N)=O)C(=O)NC(C)(C)C(=O)N[C@@H](Cc1ccsc1)C(=O)N[C@@H](Cc1csc2ccccc12)C(=O)N[C@@H](Cc1c[nH]cn1)C(=O)N[C@@H](CCCCN)C(N)=O [I-2231, Ac-MePro-Asp-Npg-Aib-Asp-Asp-Ala-Ala-Phe-Gln-Aib-3thi-BztA-His-Lys-NH2] (Ac-[αMeP]D[tBuAla][Aib]DDAAFQ[Aib][3Thi][Bta]HK-NH2)	5190 nM
CC(=O)N1CCC[C@]12CC=CCCCC1(CCCC=CCCCOC(=O)N3CC[C@@](C(=O)N[C@@H](Cc4ccsc4)C(=O)N[C@@H](Cc4csc5ccccc45)C(=O)N[C@@H](CCC(N)=O)C(N)=O)(C3)NC(=O)[C@H](CC(C)C)NC(=O)[C@H](Cc3ccccc3)NC(=O)[C@H](C)NC(=O)[C@H](C)NC(=O)[C@H](CCN(CC(=O)O)C(=O)CCN(C)C)NC(=O)[C@H](CC(=O)O)NC1=O)NC(=O)[C@H](CC(C)(C)C)NC(=O)[C@H](CC(=O)O)NC2=O (stereo partly drawn) [I-2244, Ac-PL3-Asp-Npg-B5-Asp-[Me2NPr]GAbu-Ala-Ala-Phe-Leu-PyrS2-3Thi-BztA-Gln-NH2]	16 nM
CC(=O)N1CCC[C@]12CC=CCCCC1(CCCC=CCCCOC(=O)N3CC[C@@](C(=O)N[C@@H](Cc4ccsc4)C(=O)N[C@@H](Cc4csc5ccccc45)C(=O)N[C@@H](CCC(N)=O)C(N)=O)(C3)NC(=O)[C@H](CC(C)C)NC(=O)[C@H](Cc3ccccc3)NC(=O)[C@H](C)NC(=O)[C@H](C)NC(=O)[C@H](CCN(CC(=O)O)C(=O)CN3CCOCC3)NC(=O)[C@H](CC(=O)O)NC1=O)NC(=O)[C@H](CC(C)(C)C)NC(=O)[C@H](CC(=O)O)NC2=O (stereo partly drawn) [I-2249, Ac-PL3-Asp-Npg-B5-Asp-[MorphAc]GAbu-Ala-Ala-Phe-Leu-PyrS2-3Thi-BztA-Gln-NH2]	14 nM

These reach a lower IC50. Values come first.

IC50	Compound
12 nM	CC(=O)N1CCC[C@]12CC=CCCCC1(CCCC=CCCCOC(=O)N3CC[C@@](C(=O)N[C@@H](Cc4ccsc4)C(=O)N[C@@H](Cc4csc5ccccc45)C(=O)N[C@@H](CCC(N)=O)C(N)=O)(C3)NC(=O)[C@H](CC(C)C)NC(=O)[C@H](Cc3ccccc3)NC(=O)[C@H](C)NC(=O)[C@H](C)NC(=O)[C@H](CCN(CC(=O)O)C(=O)CN3CCN(C)CC3)NC(=O)[C@H](CC(=O)O)NC1=O)NC(=O)[C@H](CC(C)(C)C)NC(=O)[C@H](CC(=O)O)NC2=O (stereo partly drawn) [I-2250, Ac-PL3-Asp-Npg-B5-Asp-[MePipAc]GAbu-Ala-Ala-Phe-Leu-PyrS2-3Thi-BztA-Gln-NH2]
11 nM	CC(=O)N1CCC[C@]12CC=CCCCC1(CCCC=CCCCOC(=O)N3CC[C@@](C(=O)N[C@@H](Cc4ccsc4)C(=O)N[C@@H](Cc4csc5ccccc45)C(=O)N[C@@H](CCC(N)=O)C(N)=O)(C3)NC(=O)[C@H](CC(C)C)NC(=O)[C@H](Cc3ccccc3)NC(=O)[C@H](C)NC(=O)[C@H](C)NC(=O)[C@H](CN(CC(=O)O)C(=O)c3ccc(CN4CCOCC4)cc3)NC(=O)[C@H](CC(=O)O)NC1=O)NC(=O)[C@H](CC(C)(C)C)NC(=O)[C@H](CC(=O)O)NC2=O (stereo partly drawn) [I-2238, Ac-PL3-Asp-Npg-B5-Asp-[MeMorphBz]GA-Ala-Ala-Phe-Leu-PyrS2-3Thi-BztA-Gln-NH2]
8 nM	CC(=O)N1CCC[C@]12CC=CCCCC1(CCCC=CCCCOC(=O)N3CC[C@@](C(=O)N[C@@H](Cc4ccsc4)C(=O)N[C@@H](Cc4csc5ccccc45)C(=O)N[C@@H](Cc4c[nH]cn4)C(=O)N[C@@H](CCCCN)C(N)=O)(C3)NC(=O)[C@H](CCC(N)=O)NC(=O)[C@H](Cc3ccccc3)NC(=O)[C@H](C)NC(=O)[C@H](C)NC(=O)[C@H](CC(=O)O)NC(=O)[C@H](CC(=O)O)NC1=O)NC(=O)[C@H](CC(C)(C)C)NC(=O)[C@H](CC(=O)O)NC2=O (stereo partly drawn) [I-2230, Ac-PL3-Asp-Npg-B5-Asp-Asp-Ala-Ala-Phe-Gln-PyrS2-3thi-BztA-His-Lys-NH2]
